{
  "source": "patent US7067515B2",
  "about": "“Quinuclidines-substituted-multi-cyclic-heteroaryls for the treatment of disease” (Pfizer Inc., priority 2001, dated 2006)",
  "molecular_target": "T1, α7 nAChR (Rattus norvegicus, UniProt Q05941)",
  "T1 construct": "brains (whole brain minus cerebellum) are dissected quickly, weighed and homogenized; from tissue; host or cells: rat brain (whole brain minus cerebellum) membrane homogenate",
  "T1 sequence (Q05941 23-502)": "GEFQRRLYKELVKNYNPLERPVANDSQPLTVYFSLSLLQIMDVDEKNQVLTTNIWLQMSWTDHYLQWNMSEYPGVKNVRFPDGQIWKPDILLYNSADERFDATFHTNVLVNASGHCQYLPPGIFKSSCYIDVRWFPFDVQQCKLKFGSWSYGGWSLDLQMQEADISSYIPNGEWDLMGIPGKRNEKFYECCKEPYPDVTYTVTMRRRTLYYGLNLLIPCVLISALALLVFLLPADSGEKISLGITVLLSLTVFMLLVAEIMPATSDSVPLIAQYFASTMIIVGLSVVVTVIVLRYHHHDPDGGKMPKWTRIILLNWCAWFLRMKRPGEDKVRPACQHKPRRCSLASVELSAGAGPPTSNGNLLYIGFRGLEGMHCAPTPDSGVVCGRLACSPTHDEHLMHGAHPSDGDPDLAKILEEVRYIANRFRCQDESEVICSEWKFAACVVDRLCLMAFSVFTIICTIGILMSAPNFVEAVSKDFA",
  "assay": "[3H]-MLA competition binding assay in rat brain membranes",
  "method": "Materials and Methods for Identifying Binding Constants:\nMembrane Preparation. Male Sprague-Dawley rats (300–350 g) are sacrificed by decapitation and the brains (whole brain minus cerebellum) are dissected quickly, weighed and homogenized in 9 volumes/g wet weight of ice-cold 0.32M sucrose using a rotating pestle on setting 50 (10 up and down strokes). The homogenate is centrifuged at 1,000×g for 10 minutes at 4° C. The supernatant is collected and centrifuged at 20,000×g for 20 minutes at 4° C. The resulting pellet is resuspended to a protein concentration of 1–8 mg/mL. Aliquots of 5 mL homogenate are frozen at −80° C. until needed for the assay. On the day of the assay, aliquots are thawed at room temperature and diluted with Kreb's—20 mM Hepes buffer pH 7.0 (at room temperature) containing 4.16 mM NaHCO3, 0.44 mM KH2PO4, 127 mM NaCl, 5.36 mM KCl, 1.26 mM CaCl2, and 0.98 mM MgCl2, so that 25–150 μg protein are added per test tube. Proteins are determined by the Bradford method (Bradford, M. M., Anal. Biochem., 72, 248–254, 1976) using bovine serum albumin as the standard.\nBinding Assay. For saturation studies, 0.4 mL homogenate are added to test tubes containing buffer and various concentrations of radioligand, and are incubated in a final volume of 0.5 mL for 1 hour at 25° C. Nonspecific binding was determined in tissues incubated in parallel in the presence of 1 μM MLA, added before the radioligand. In competition studies, drugs are added in increasing concentrations to the test tubes before addition of approximately 3.0 to 4.0 nM [^3H]-MLA. The incubations are terminated by rapid vacuum filtration through Whatman GF/B glass filter paper mounted on a 48 well Brandel cell harvester. Filters are pre-soaked in 50 mM Tris HCl pH 7.0–0.05% polyethylenimine. The filters are rapidly washed two times with 5 mL aliquots of cold 0.9% saline and then counted for radioactivity by liquid scintillation spectrometry.\nData Analysis. In competition binding studies, the inhibition constant (Ki) was calculated from the concentration dependent inhibition of [^3H]-MLA binding obtained from non-linear regression fitting program according to the Cheng-Prusoff equation (Cheng, Y. C. and Prussoff, W. H., Biochem. Pharmacol., 22, p. 3099–3108, 1973). Hill coefficients were obtained using non-linear regression (GraphPad Prism sigmoidal dose-response with variable slope).",
  "key": {"[1]": {"settings": "competition with approximately 3.0 to 4.0 nM [3H]-MLA, rat brain (whole brain minus cerebellum) homogenate, 1 hour at 25° C, Cheng-Prusoff, read-out: Ki Value"}},
  "note": "Counter-ions that a name gives are not always drawn. Like-named read-outs stand apart in the source and are kept apart here.",
  "data": [
    {"smiles": "O=C(N[C@H]1CN2CCC1CC2)c1cc2ccoc2cn1", "note": "[Example 4, N-[(3R)-1-azabicyclo[2.2.2]oct-3-yl]furo[2,3-c]pyridine-5-carboxamide dihydrochloride]", "values": [
      {"measurement": "Ki", "setting": "[1]", "value": "9 to 10", "unit": "nM"}
    ]},
    {"smiles": "O=C(N[C@H]1CN2CCC1CC2)c1cc2ccsc2cn1", "note": "[Example 22, N-[(3R)-1-azabicyclo[2.2.2]oct-3-yl]thieno[2,3-c]pyridine-5-carboxamide dihydrochloride]", "values": [
      {"measurement": "Ki", "value": 5, "unit": "nM"}
    ]},
    {"smiles": "C[C@H]1[C@H](NC(=O)c2cc3ccoc3cn2)C2CCN1CC2", "note": "[Example 33, N-[(2S,3R)-2-methyl-1-azabicyclo[2.2.2]oct-3-yl]furo[2,3-c]pyridine-5-carboxamide dihydrochloride]", "values": [
      {"measurement": "Ki", "value": 15, "unit": "nM"}
    ]},
    {"smiles": "O=C(N[C@H]1CN2CCC1CC2)c1cc2occc2cn1", "note": "[Example 30, N-[(3R)-1-Azabicyclo[2.2.2]oct-3-yl]furo[3,2-c]pyridine-6-carboxamide dihydrochloride]", "values": [
      {"measurement": "Ki", "value": 45, "unit": "nM"}
    ]},
    {"smiles": "O=C(N[C@H]1CN2CCC1CC2)c1cc2cnccc2s1", "note": "[Example 21, N-[(3R)-1-azabicyclo[2.2.2]oct-3-yl]thieno[3,2-c]pyridine-2-carboxamide dihydrochloride]", "values": [
      {"measurement": "Ki", "setting": "[1]", "value": 269, "unit": "nM"}
    ]},
    {"smiles": "O=C(N[C@H]1CN2CCC1CC2)c1cc2ccncc2s1", "note": "[Example 17, N-[(3R)-1-azabicyclo[2.2.2]oct-3-yl]thieno[2,3-c]pyridine-2-carboxamide dihydrochloride]", "values": [
      {"measurement": "Ki", "value": 65, "unit": "nM"}
    ]},
    {"smiles": "O=C(N[C@H]1CN2CCC1CC2)c1cnc2ccsc2c1", "note": "[Example 20, N-[(3R)-1-azabicyclo[2.2.2]oct-3-yl]thieno[3,2-b]pyridine-6-carboxamide dihydrochloride]", "values": [
      {"measurement": "Ki", "value": 952, "unit": "nM"}
    ]},
    {"smiles": "O=C(N[C@H]1CN2CCC1CC2)c1cc2sccc2cn1", "note": "[Example 23, N-[(3R)-1-azabicyclo[2.2.2]oct-3-yl]thieno[3,2-c]pyridine-6-carboxamide dihydrochloride]", "values": [
      {"measurement": "Ki", "setting": "[1]", "value": 5, "unit": "nM"}
    ]},
    {"smiles": "O=C(N[C@H]1CN2CCC1CC2)c1cc2c(Cl)coc2cn1", "note": "[Example 28, N-[(3R)-1-Azabicyclo[2.2.2]oct-3-yl]-3-chlorofuro[2,3-c]pyridine-5-carboxamide dihydrochloride]", "values": [
      {"measurement": "Ki", "value": 3, "unit": "nM"}
    ]},
    {"smiles": "O=C(N[C@H]1CN2CCC1CC2)c1cc2c(cn1)OCC2", "note": "[Example 1, N-[(3R)-1-azabicyclo[2.2.2]oct-3-yl]-2,3-dihydrofuro[2,3-c]pyridine-5-carboxamide dihydrochloride]", "values": [
      {"measurement": "Ki", "value": "50 to 60", "unit": "nM"}
    ]},
    {"smiles": "O=C(N[C@H]1CN2CCC1CC2)c1cc2cscc2cn1", "note": "[Example 40, N-[(3R)-1-azabicyclo[2.2.2]oct-3-yl]thieno[3,4-c]pyridine-6-carboxamide methanesulfonate]", "values": [
      {"measurement": "Ki", "value": 25, "unit": "nM"}
    ]},
    {"smiles": "O=C(N[C@H]1CN2CCC1CC2)c1cc2cnccc2o1", "note": "[Example 2, N-[(3R)-1-azabicyclo[2.2.2]oct-3-yl]furo[3,2-c]pyridine-2-carboxamide]", "values": [
      {"measurement": "Ki", "setting": "[1]", "value": 1300, "unit": "nM"}
    ]},
    {"smiles": "O=C(N[C@H]1CN2CCC1CC2)c1cc2c(Br)coc2cn1", "note": "[Example 29, N-[(3R)-1-Azabicyclo[2.2.2]oct-3-yl]-3-bromofuro[2,3-c]pyridine-5-carboxamide]", "values": [
      {"measurement": "Ki", "value": 4, "unit": "nM"}
    ]},
    {"smiles": "O=C(N[C@H]1CN2CCC1CC2)c1cc2ccoc2c(Cl)n1", "note": "[Example 3, N-[(3R)-1-azabicyclo[2.2.2]oct-3-yl]-7-chlorofuro[2,3-c]pyridine-5-carboxamide hydrochloride]", "values": [
      {"measurement": "Ki", "setting": "[1]", "value": 2250, "unit": "nM"}
    ]},
    {"smiles": "Cc1coc2cnc(C(=O)N[C@@H]3C4CCN(CC4)[C@H]3C)cc12", "note": "[Example 34, 3-methyl-N-[(2S,3R)-2-methyl-1-azabicyclo[2.2.2]oct-3-yl]furo[2,3-c]pyridine-5-carboxamide dihydrochloride]", "values": [
      {"measurement": "Ki", "value": 15, "unit": "nM"}
    ]},
    {"smiles": "Cc1coc2cnc(C(=O)N[C@H]3CN4CCC3CC4)cc12", "note": "[Example 9, N-[(3R)-1-azabicyclo[2.2.2]oct-3-yl]-3-methylfuro[2,3-c]pyridine-5-carboxamide]", "values": [
      {"measurement": "Ki", "value": "1 to 6", "unit": "nM"}
    ]},
    {"smiles": "O=C(N[C@H]1CN2CCC1CC2)c1cc2c(Br)csc2cn1", "note": "[Example 31, N-[(3R)-1-azabicyclo[2.2.2]oct-3-yl]-3-bromothieno[2,3-c]pyridine-5-carboxamide]", "values": [
      {"measurement": "Ki", "value": 9, "unit": "nM"}
    ]},
    {"smiles": "O=C(N[C@H]1CN2CCC1CC2)c1cc2cccnc2s1", "note": "[Example 13, N-((3R)-1-azabicyclo[2.2.2]oct-3-yl)thieno[2,3-b]pyridine-2-carboxamide dihydrochloride]", "values": [
      {"measurement": "Ki", "value": 108, "unit": "nM"}
    ]},
    {"smiles": "C[C@H]1[C@H](NC(=O)c2cc3ccsc3cn2)C2CCN1CC2", "note": "[Example 35, N-[(2S,3R)-2-methyl-1-azabicyclo[2.2.2]oct-3-yl]thieno[2,3-c]pyridine-5-carboxamide dihydrochloride]", "values": [
      {"measurement": "Ki", "value": 18, "unit": "nM"}
    ]},
    {"smiles": "Cc1cc2cc(C(=O)N[C@H]3CN4CCC3CC4)ncc2o1", "note": "[Example 6, N-[(3R)-1-azabicyclo[2.2.2]oct-3-yl]-2-methylfuro[2,3-c]pyridine-5-carboxamide dihydrochloride]", "values": [
      {"measurement": "Ki", "value": 119, "unit": "nM"}
    ]},
    {"smiles": "O=C(N[C@H]1CN2CCC1CC2)c1ccc2sccc2n1", "note": "[Example 19, N-[(3R)-1-azabicyclo[2.2.2]oct-3-yl]thieno[3,2-b]pyridine-5-carboxamide dihydrochloride]", "values": [
      {"measurement": "Ki", "value": 274, "unit": "nM"}
    ]},
    {"smiles": "C[C@H]1[C@H](NC(=O)c2cc3sccc3cn2)C2CCN1CC2", "note": "[Example 36, N-[(2S,3R)-2-methyl-1-azabicyclo[2.2.2]oct-3-yl]thieno[3,2-c]pyridine-6-carboxamide dihydrochloride]", "values": [
      {"measurement": "Ki", "value": 12, "unit": "nM"}
    ]}
  ]
}
